The record followed here is patent US12655142B2 (Merck Patent GmbH, priority 2019, dated 2026).

Structures are written as SMILES.

The target in one test is T1, c-Kit(V654A) (Homo sapiens, UniProt P10721, V654A).
T1 construct: recombinant human c-Kit, amino acids 544-end containing the V654A mutation; GST (N)
The experiment in a line: c-Kit(V654A) assay (33P-ATP filter binding kinase assay). Format: biochemical. The following applies: recombinant human c-Kit aa 544-end V654A, ATP 200 μM. On the procedure: c-Kit(V654A) (N-terminal GST-tagged, recombinant human c-Kit, amino acids 544-end containing the V654A mutation) is incubated with 8 mM MOPS pH 7.0, 0.2 mM EDTA, 250 μM GGMEDIYEFMGGKKK, 10 mM MgAcetate and [gamma-33P-ATP] (specific activity approx. 500 cpm/pmol, concentration 200 μM). The reaction is initiated by the addition of the MgATP mix. After incubation for 40 minutes at room temperature, the reaction is stopped by the addition of 3% phosphoric acid solution. 10 μL of the reaction is then spotted onto a P30 filtermat and washed three times for 5 minutes in 75 mM phosphoric acid and once in methanol prior to drying and scintillation counting.

Test [1] addresses T2, GIST430/654 cell line expressing mutated constitutively active cKIT receptor tyrosine kinase (Δ560-576 deletion and V654A point mutation) (Homo sapiens, UniProt P10721, DEL560-576/V654A).
T2 construct: endogenous in cells; host or cells: GIST430/654 cells
Briefly: Cellular cKIT autophosphorylation (phospho-Y307-cKIT, Luminex bead assay) in GIST430/654 cells. Format: cell-based. The note with it: compounds 45 min, read-out: GIST 430/654 IC50. On the procedure: Assay Principle for Cellular Testing of cKIT Mutant Inhibitors
The GIST430 cell line expressing constitutive active cKIT receptor tyrosine kinase (Δ560-576 deletion) and the Imatinib resistant GIST430/654 cell line expressing mutated constitutively active cKIT receptor tyrosine kinase (Δ560-576 deletion and V654A point mutation) were employed for assessing cellular potency of compounds. Cellular activity of mutant cKIT was determined by the degree of cKIT autophosphorylation at tyrosine 307 using a Luminex-based bead assay. GIST430 cells were plated with 22,000 cells per well of a 96-well plate in 100 μl medium (85% IMDM/15% FCS) and GIST430/654 cells were plated with 25,000 cells per well of a 96-well plate in 100 μl medium (85% IMDM/15% FCS supplemented with 100 nM Imatinib). At the following day compounds were added in a serial dilution for 45 min. Then, cells were lysed with 90 μl lysis buffer (20 mM Hepes pH 7.5, 200 mM NaCl, 1.5 mM MgCl2×6H2O, 0.4 mM EDTA, 1% Triton-X-100, 1% Phosphatase-Inhibitor II, 20 mM β-Glycerolphosphat, 0.1% Protease-Inhibitor Cocktail III, 0.01% Benzonase) and lysates were cleared by centrifugation through a 96-well filter plate (0.65 μm). Samples were incubated with Luminex-beads which were coupled with an anti-total cKIT antibody overnight at 4° C. under gentle agitation. For detection of phospho-Y307-cKIT a phosphospecific antibody and a species-specific PE-labeled secondary antibody were added. The amount of phospho-Y307-cKIT was determined in a Luminex 200 instrument measuring 100 events per well within 60 seconds.
Counts from samples treated with compounds were calculated as percent of control from solvent treated (0.3% DMSO) samples. Dose-response curves were fitted and IC50 values were determined using Genedata Screener software.

T1 sequence (P10721 544-976 V654A): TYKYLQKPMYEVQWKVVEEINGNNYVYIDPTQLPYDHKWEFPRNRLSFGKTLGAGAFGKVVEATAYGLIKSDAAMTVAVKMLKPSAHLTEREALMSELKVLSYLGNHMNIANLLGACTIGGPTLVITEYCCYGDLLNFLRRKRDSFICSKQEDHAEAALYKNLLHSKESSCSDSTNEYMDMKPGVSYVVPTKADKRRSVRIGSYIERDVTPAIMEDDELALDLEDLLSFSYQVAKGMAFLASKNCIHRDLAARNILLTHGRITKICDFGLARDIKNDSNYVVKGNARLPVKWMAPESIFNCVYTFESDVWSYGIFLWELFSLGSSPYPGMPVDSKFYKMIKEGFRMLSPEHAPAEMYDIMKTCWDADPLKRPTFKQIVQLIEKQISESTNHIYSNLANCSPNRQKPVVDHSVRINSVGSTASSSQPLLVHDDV
T2 sequence (P10721 with tags, fused parts or gaps DEL560-576/V654A): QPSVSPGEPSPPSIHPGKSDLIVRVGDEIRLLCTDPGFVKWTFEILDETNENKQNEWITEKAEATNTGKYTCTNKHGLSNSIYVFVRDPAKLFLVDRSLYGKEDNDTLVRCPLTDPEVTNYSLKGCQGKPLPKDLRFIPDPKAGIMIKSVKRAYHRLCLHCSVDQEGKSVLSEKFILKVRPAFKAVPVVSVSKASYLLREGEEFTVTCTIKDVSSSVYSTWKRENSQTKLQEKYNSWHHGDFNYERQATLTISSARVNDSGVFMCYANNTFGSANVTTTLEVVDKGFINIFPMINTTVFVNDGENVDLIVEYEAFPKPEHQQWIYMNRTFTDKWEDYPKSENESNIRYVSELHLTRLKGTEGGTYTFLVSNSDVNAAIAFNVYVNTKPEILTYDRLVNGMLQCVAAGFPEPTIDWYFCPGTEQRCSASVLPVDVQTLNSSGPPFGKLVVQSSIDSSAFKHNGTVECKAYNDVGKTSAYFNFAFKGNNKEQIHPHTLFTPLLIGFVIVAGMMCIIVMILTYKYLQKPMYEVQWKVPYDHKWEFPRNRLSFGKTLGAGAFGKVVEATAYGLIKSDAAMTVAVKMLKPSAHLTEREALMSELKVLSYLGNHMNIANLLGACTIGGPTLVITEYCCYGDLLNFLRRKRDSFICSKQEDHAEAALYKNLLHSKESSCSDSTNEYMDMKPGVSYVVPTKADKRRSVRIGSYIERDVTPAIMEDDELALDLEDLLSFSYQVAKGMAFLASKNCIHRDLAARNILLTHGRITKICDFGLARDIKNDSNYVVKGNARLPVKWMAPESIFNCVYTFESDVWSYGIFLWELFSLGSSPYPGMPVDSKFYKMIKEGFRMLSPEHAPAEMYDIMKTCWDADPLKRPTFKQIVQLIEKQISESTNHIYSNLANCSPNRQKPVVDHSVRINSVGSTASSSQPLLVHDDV

Turning to `Cn1cc(-c2ccc(CNc3cc(-c4cnc5cc(Cl)ccn45)ncn3)cc2)cn1` [A82, 6-{7-chloroimidazo[1,2-a]pyridin-3-yl}-N-{[4-(1-methyl-1H-pyrazol-4-yl)phenyl]methyl}pyrimidin-4-amine], the IC50 at c-Kit(V654A) worked out at 0.0092 µM; in test [1], 0.27 µM.
In the same order, the values of `Cn1ncc(-c2ccc(CNc3cc(-c4cnc5cc(OCCCO)ccn45)ncn3)cc2)n1` [A134, 3-(3-{6-[4-(2-methyl-2H-[1,2,3]triazol-4-yl)-benzylamino]-pyrimidin-4-yl}-imidazo[1,2-a]pyridin-7-yloxy)-propan-1-ol] are 0.0046 µM and 0.052 µM.
For `Cn1cc(-c2ccc(CNc3cc(-c4cnc5cc(OCC(C)(C)N6CCOCC6)ccn45)ncn3)cc2)cn1` [A107, {6-[7-(2-methyl-2-morpholin-4-yl-propoxy)-imidazo[1,2-a]pyridin-3-yl]-pyrimidin-4-yl}-[4-(1-methyl-1H-pyrazol-4-yl)-benzyl]-amine], the IC50 on c-Kit(V654A) was determined as 0.013 µM; in test [1], 0.12 µM.
In the same order, the values of `Cn1ncc(-c2ccc(CNc3cc(-c4cnc5cc(OCCc6cccnc6)ccn45)ncn3)cc2)n1` [A126, [4-(2-methyl-2H-[1,2,3]triazol-4-yl)-benzyl]-{6-[7-(2-pyridin-3-yl-ethoxy)-imidazo[1,2-a]pyridin-3-yl]-pyrimidin-4-yl}-amine] are 0.016 µM and 0.14 µM.
As to `COc1ccn2c(-c3cc(NCc4ccc(-c5cnn(C6COC6)c5)cc4)ncn3)cnc2c1` [A33, 6-{7-methoxyimidazo[1,2-a]pyridin-3-yl}-N-({4-[1-(oxetan-3-yl)-1H-pyrazol-4-yl]phenyl}methyl)pyrimidin-4-amine], the IC50 on c-Kit(V654A) is 0.016 µM; in test [1] it was 0.12 µM.
For `Cn1ncc(-c2ccc(CNc3cc(-c4cnc5cc(OCCCN6CC7(COC7)C6)ccn45)ncn3)cc2)n1` [A239, [4-(2-methyl-2H-[1,2,3]triazol-4-yl)-benzyl]-(6-{7-[3-(2-oxa-6-aza-spiro[3.3]hept-6-yl)-propoxy]-imidazo[1,2-a]pyridin-3-yl}-pyrimidin-4-yl)-amine] the same measures were 0.0032 µM and 0.094 µM.
For `Fc1cc(N2CCCC2)ncc1CNc1cc(-c2cnc3ccccn23)ncn1` [A152, (4-fluoro-6-pyrrolidin-1-yl-pyridin-3-ylmethyl)-(6-imidazo[1,2-a]pyridin-3-yl-pyrimidin-4-yl)-amine], the values for the IC50 (on c-Kit(V654A); in test [1]) were 0.0038 µM and 0.37 µM, respectively.
In the same order, the values of `Cn1cc(-c2ccc(CNc3cc(-c4cnc5cc(OCC6CCN(C7CC7)CC6)ccn45)ncn3)cc2)cn1` [A187, {6-[7-(1-cyclopropyl-piperidin-4-ylmethoxy)-imidazo[1,2-a]pyridin-3-yl]-pyrimidin-4-yl}-[4-(1-methyl-1H-pyrazol-4-yl)-benzyl]-amine] are 0.0075 µM and 0.38 µM.
For `CN1CCO[C@@H](COc2ccn3c(-c4cc(NCc5ccc(-c6cnn(C)c6)cc5)ncn4)cnc3c2)C1` [A117, {6-[7-((R)-4-methyl-morpholin-2-ylmethoxy)-imidazo[1,2-a]pyridin-3-yl]-pyrimidin-4-yl}-[4-(1-methyl-1H-pyrazol-4-yl)-benzyl]-amine] the same measures were 0.006 µM and 0.03 µM.
With `CN1CCOC[C@@H]1COc1ccn2c(-c3cc(NCc4ccc(-c5cnn(C)c5)cc4)ncn3)cnc2c1` [A124, N-{[4-(1-methyl-1H-pyrazol-4-yl)phenyl]methyl}-6-(7-{[(3R)-4-methylmorpholin-3-yl]methoxy}imidazo[1,2-a]pyridin-3-yl)pyrimidin-4-amine], the IC50 on c-Kit(V654A) is 0.0074 µM; in test [1] it was 0.053 µM.
For `COc1ccn2c(-c3cc(NCc4ccc(-c5nccc(OC)n5)cc4)ncn3)cnc2c1` [A34, 6-{7-methoxyimidazo[1,2-a]pyridin-3-yl}-N-{[4-(4-methoxypyrimidin-2-yl)phenyl]methyl}pyrimidin-4-amine] the same measures were 0.052 µM and 0.74 µM.
Consider `Cn1ncc(-c2ccc(CNc3cc(-c4cnc5cc(N6CCCC6)ccn45)ncn3)cc2)n1` [A232, [4-(2-methyl-2H-[1,2,3]triazol-4-yl)-benzyl]-[6-(7-pyrrolidin-1-yl-imidazo[1,2-a]pyridin-3-yl)-pyrimidin-4-yl]-amine], for which the IC50 at c-Kit(V654A) stood at 0.023 µM; in test [1], 0.17 µM.
In the same order, the values of `Cc1ccn2c(-c3cc(NCc4ccc(-c5cnn(C)c5)cc4)ncn3)cnc2c1` [A66, [6-(7-methyl-imidazo[1,2-a]pyridin-3-yl)-pyrimidin-4-yl]-[4-(1-methyl-1H-pyrazol-4-yl)-benzyl]-amine] are 0.0078 µM and 0.19 µM.
On to `COc1ccn2c(-c3cc(NCc4ccc(-c5cn(C)nc5OC)cc4)ncn3)cnc2c1` [A50, N-{[4-(3-methoxy-1-methyl-1H-pyrazol-4-yl)phenyl]methyl}-6-{7-methoxyimidazo[1,2-a]pyridin-3-yl}pyrimidin-4-amine], for which the figures for the IC50 (at c-Kit(V654A); in test [1]) were 0.025 µM and 0.49 µM, respectively.
As for `Cn1cc(-c2ccc(COc3cc(-c4cnc5cc(OCCN6CCC(F)(F)C6)ccn45)ncn3)cc2)cn1` [A90, 7-[2-(3,3-difluoro-pyrrolidin-1-yl)-ethoxy]-3-{6-[4-(1-methyl-1H-pyrazol-4-yl)-benzyloxy]-pyrimidin-4-yl}-imidazo[1,2-a]pyridine], the IC50 stood at 0.01 µM on c-Kit(V654A) and 0.26 µM in test [1].
In the same order, the values of `CN1CCN(c2ccn3c(-c4cc(NCc5ccc(-c6cnn(C)c6)cc5)ncn4)cnc3c2)CC1` [A181, {6-[7-(4-methyl-piperazin-1-yl)-imidazo[1,2-a]pyridin-3-yl]-pyrimidin-4-yl}-[4-(1-methyl-1H-pyrazol-4-yl)-benzyl]-amine] are 0.015 µM and 0.11 µM.
In the same order, the values of `CC(COc1ccn2c(-c3cc(NCc4ccc(-c5cnn(C)n5)cc4)ncn3)cnc2c1)CN1CCCC1` (stereo not shown) [A227, {6-[7-(2-methyl-3-pyrrolidin-1-yl-propoxy)-imidazo[1,2-a]pyridin-3-yl]-pyrimidin-4-yl}-[4-(2-methyl-2H-[1,2,3]triazol-4-yl)-benzyl]-amine] are 0.0033 µM and 0.048 µM.
On to `Cn1cc(-c2ccc(CNc3cc(-c4cnc5cc(OCCCN6CCCC6=O)ccn45)ncn3)cc2)cn1` [A145, 1-[3-({3-[6-({[4-(1-methyl-1H-pyrazol-4-yl)phenyl]methyl}amino)pyrimidin-4-yl]imidazo[1,2-a]pyridin-7-yl}oxy)propyl]pyrrolidin-2-one], for which the IC50 at c-Kit(V654A) was 0.041 µM; in test [1] it was 0.25 µM.
For `Cn1cc(-c2ccc(CNc3cc(-c4cnc5cc(OCC6CC6)ccn45)ncn3)cc2)cn1` [A58, 6-[7-(cyclopropylmethoxy)imidazo[1,2-a]pyridin-3-yl]-N-{[4-(1-methyl-1H-pyrazol-4-yl)phenyl]methyl}pyrimidin-4-amine] the same measures were 0.019 µM and 0.15 µM.
In the same order, the values of `COc1ccn2c(-c3cc(NCc4ccc(-c5cc(C)no5)cc4)ncn3)cnc2c1` [A52, [6-(7-methoxy-imidazo[1,2-a]pyridin-3-yl)-pyrimidin-4-yl]-[4-(3-methyl-isoxazol-5-yl)-benzyl]-amine] are 0.0057 µM and 0.15 µM.
